We go through 17 molecules from patent publication US4575560A, “Insecticidal diaminoguanidine hydrazone compounds” (American Cyanamid Company, priority 1985, dated 1986).

Where a name gives a salt, the structure may show the parent alone.

Test [1] has as its system Southern Armyworm. As to the kind of experiment: Southern armyworm test, third-instar larvae on treated Sieva lima bean leaves. In kind it is in vivo, Spodoptera eridania (Cramer). As to conditions: for Mortality Rating Southern Armyworm: third-instar larvae. On the procedure: Test formulations and procedures used for evaluation are as follows:
A. 100 mg of the test material is weighed, placed in a funnel over a 113 g narrow-mouth bottle, rinsed into the bottle with a 35 mL scoop of acetone, followed by a 35 mL scoop of water and another 35 mL scoop of acetone to yield 1000 ppm in 65% acetone. If the material is not soluble, it is broken up with a glass rod and used as a suspension.
B. This stock solution ("A") is used to make 300 ppm solutions or suspensions by pipetting 30 mL of "A" into a bottle containing 70 mL of 50% acetone to yield 300 ppm. Further dilutions in 50% acetone are made as required.
C. Tests requiring 10 ppm acetone solutions: 1 mL of "A" is pipetted into 99 mL of acetone to yield 10 ppm. Additional dilutions are made using 50% acetone as required.
Southern Armyworm--Spodoptera eridania (Cramer)
A Sieva lima bean plant with just the primary leaves expanded to 1.91 cm is dipped for three seconds with agitation in the "A" solution of 1000 ppm and set in the hood to dry. Following this, one leaf is placed in a 9 cm petri dish which has a moist filter paper in the bottom and 10 third-instar armyworm larvae about 1 cm long. This dish is covered and held at 80° F., and 50% r.h. After two days, mortality counts and estimates of the amount of feeding are made. Compounds showing partial kill and/or inhibition of feeding are held for an extra day for further observations.
All compounds showing activity as defined above are retested, using the second leaf on the bean plant, after an interval of seven days from original treatment, as an assay of residual activity.

For test [2], the system named is Tobacco Budworm 3rd Instar. The experiment in a line: Tobacco budworm secondary test, third-instar larvae on treated cotton cotyledons. The format is in vivo, Heliothis virescens (Fabricus).

Take `N=C(NN=Cc1ccc(OC(F)(F)C(F)F)cc1)NN=Cc1ccc(C(F)(F)F)cc1` [CF3 / HCF2 CF2 O / B, 1-{[p-(1,1,2,2-tetrafluoroethoxy)benzylidene]amino}-3-{[p-(trifluoromethyl)benzylidene]amino}guanidine]: the “Mortality Rating Southern Armyworm” value in test [1] (100 ppm) and in test [1] (1000 ppm) was 9 (100%) throughout. The “Mortality Rating Tobacco Budworm 3rd Instar” value in test [2] (1000 ppm) is listed as 3 (36-45%).

In the case of `N=C(NN=Cc1ccc(OCC(F)(F)F)cc1)NN=Cc1ccc(OCC(F)(F)F)cc1` [CF3 CH2 / S], the “Mortality Rating Southern Armyworm” value is 6 (66-75%) in test [1] (10 ppm), 8 (86-99%) in test [1] (100 ppm) and 9 (100%) in test [1] (1000 ppm). The “Mortality Rating Tobacco Budworm 3rd Instar” value in test [2] (100 ppm) and in test [2] (1000 ppm) was 0 (No effect) each time. In addition, in test [2] (1000 ppm), the “reduced feeding (R) Tobacco Budworm 3rd Instar” value was “R”.

`N=C(NN=Cc1ccc(OCC(F)(F)F)cc1)NN=Cc1ccc(OCC(F)(F)F)cc1` [CF3 CH2 O / B]: the “Mortality Rating Southern Armyworm” value in test [1] (100 ppm) is reported as 0 (No effect); in test [1] (1000 ppm), 4 (46-55%). Further, the “Mortality Rating Tobacco Budworm 3rd Instar” value in test [2] (100 ppm) and in test [2] (1000 ppm) was 0 (No effect) in each case. For the same molecule, the “reduced feeding (R) Tobacco Budworm 3rd Instar” value in test [2] (1000 ppm) is reported as “R”.

On to `N=C(NN=Cc1ccc(OC(F)(F)F)cc1)NN=Cc1ccc(OC(F)(F)F)cc1` [CF3 O / B], for which the “Mortality Rating Southern Armyworm” value was 4 (46-55%) in test [1] (10 ppm), 9 (100%) in test [1] (100 ppm) and 9 (100%) in test [1] (1000 ppm). The “Mortality Rating Tobacco Budworm 3rd Instar” value in test [2] (1000 ppm) is 7 (76-85%).

With `CC(C)OC(=O)N(N=Cc1ccc(OC(F)(F)F)cc1)C(=N)NN=Cc1ccc(OC(F)(F)F)cc1` [CF3 O / CF3 O / -i-C3 H7], the “Mortality Rating Southern Armyworm” value in test [1] (10 ppm) is 7 (76-85%); in test [1] (100 ppm), 9 (100%); in test [1] (1000 ppm), 9 (100%). In addition, the “Mortality Rating Tobacco Budworm 3rd Instar” value in test [2] (100 ppm) is listed as 5 (56-65%). Further, in test [2] (100 ppm), the “reduced feeding (R) Tobacco Budworm 3rd Instar” value is “R”.

As for `CCN(CC)C(=O)N(N=Cc1ccc(OC(F)(F)F)cc1)C(=N)NN=Cc1ccc(OC(F)(F)F)cc1` [CF3 O / CF3 O / C2 H5 / C2 H5], the figures for the “Mortality Rating Southern Armyworm” value in test [1] (10 ppm), in test [1] (100 ppm) and in test [1] (1000 ppm) were 0 (No effect), 9 (100%) and 9 (100%), respectively. Besides, the “Mortality Rating Tobacco Budworm 3rd Instar” value in test [2] (1000 ppm) is listed as 8 (86-99%).

Turning to `CCOC(=O)N(N=Cc1ccc(OC(F)(F)F)cc1)C(=N)NN=Cc1ccc(OC(F)(F)F)cc1` [CF3 O / CF3 O / C2 H5], the figures for the “Mortality Rating Southern Armyworm” value in test [1] (10 ppm), in test [1] (100 ppm) and in test [1] (1000 ppm) were 6 (66-75%), 9 (100%) and 9 (100%), respectively. Besides, the results for the “Mortality Rating Tobacco Budworm 3rd Instar” value in test [2] (100 ppm) and in test [2] (1000 ppm) were 2 (26-35%) and 7 (76-85%), respectively. In addition, the “reduced feeding (R) Tobacco Budworm 3rd Instar” value in test [2] (1000 ppm) is “R”.

In the case of `C=CCOC(=O)N(N=Cc1ccc(OC(F)(F)F)cc1)C(=N)NN=Cc1ccc(OC(F)(F)F)cc1` [CF3 O / CF3 O / CH2CHCH2], the “Mortality Rating Southern Armyworm” value is recorded as 6 (66-75%) in test [1] (10 ppm), 8 (86-99%) in test [1] (100 ppm) and 9 (100%) in test [1] (1000 ppm). The “Mortality Rating Tobacco Budworm 3rd Instar” value in test [2] (1000 ppm) is 0 (No effect). Further, the “reduced feeding (R) Tobacco Budworm 3rd Instar” value in test [2] (1000 ppm) is reported as “R”.

`N=C(NN=Cc1ccc(OC(F)(F)F)cc1)N(N=Cc1ccc(OC(F)(F)F)cc1)C(=O)OCC(Cl)(Cl)Cl` [CF3 O / CF3 O / Cl3 CCH2]: the “Mortality Rating Southern Armyworm” value in test [1] (10 ppm), in test [1] (100 ppm) and in test [1] (1000 ppm) was 9 (100%) each time. In addition, the “Mortality Rating Tobacco Budworm 3rd Instar” value in test [2] (100 ppm) is listed as 1 (11-25%); in test [2] (1000 ppm), 0 (No effect). In addition, the “reduced feeding (R) Tobacco Budworm 3rd Instar” value in test [2] (100 ppm) and in test [2] (1000 ppm) was “R” in each case.

On to `N=C(NN=Cc1ccc(OC(F)(F)F)cc1)N(N=Cc1ccc(OC(F)(F)F)cc1)C(=O)OCCCl` [CF3 O / CF3 O / ClCH2 CH2], for which the “Mortality Rating Southern Armyworm” value is recorded as 5 (56-65%) in test [1] (10 ppm), 9 (100%) in test [1] (100 ppm) and 9 (100%) in test [1] (1000 ppm). Moreover, the “Mortality Rating Tobacco Budworm 3rd Instar” value in test [2] (10 ppm) is recorded as 0 (No effect); in test [2] (100 ppm) it was 0 (No effect); in test [2] (1000 ppm) it was 8 (86-99%). The “reduced feeding (R) Tobacco Budworm 3rd Instar” value in test [2] (10 ppm), in test [2] (100 ppm) and in test [2] (1000 ppm) was “R” in each case.

For `CCC(C)OC(=O)N(N=Cc1ccc(OC(F)(F)F)cc1)C(=N)NN=Cc1ccc(OC(F)(F)F)cc1` (stereo not shown) [CF3 O / CF3 O / drawing 55], the “Mortality Rating Southern Armyworm” value in test [1] (10 ppm) is listed as 0 (No effect); in test [1] (100 ppm) it was 9 (100%); in test [1] (1000 ppm) it was 9 (100%). Moreover, the figures for the “Mortality Rating Tobacco Budworm 3rd Instar” value in test [2] (100 ppm) and in test [2] (1000 ppm) were 0 (No effect) and 8 (86-99%), respectively. The “reduced feeding (R) Tobacco Budworm 3rd Instar” value in test [2] (100 ppm) was “R”.

For `CCC(C)OC(=O)N(N=Cc1ccc(Cl)cc1)C(=N)NN=Cc1ccc(Cl)cc1` (stereo not shown) [Cl / Cl / drawing 56], the figures for the “Mortality Rating Southern Armyworm” value in test [1] (100 ppm) and in test [1] (1000 ppm) were 0 (No effect) and 9 (100%), respectively. Also, the “Mortality Rating Tobacco Budworm 3rd Instar” value in test [2] (100 ppm) and in test [2] (1000 ppm) was 0 (No effect) in each case. In addition, in test [2] (1000 ppm), the “reduced feeding (R) Tobacco Budworm 3rd Instar” value is “R”.

Turning to `N=C(NN=Cc1ccc(Cl)cc1)NN=Cc1ccc(OC(F)(F)C(F)F)cc1` [Cl / HCF2 CF2 O / B], the “Mortality Rating Southern Armyworm” value is listed as 0 (No effect) in test [1] (10 ppm), 9 (100%) in test [1] (100 ppm) and 9 (100%) in test [1] (1000 ppm). Further, the “Mortality Rating Tobacco Budworm 3rd Instar” value in test [2] (100 ppm) and in test [2] (1000 ppm) was 0 (No effect) throughout. Further, in test [2] (1000 ppm), the “reduced feeding (R) Tobacco Budworm 3rd Instar” value is “R”.

As to `N=C(NN=Cc1ccc(Cl)cc1)NN=Cc1ccc(Cl)cc1` [Cl / HCl], the “Mortality Rating Southern Armyworm” value in test [1] (10 ppm) and in test [1] (100 ppm) was 0 (No effect) throughout. The “reduced feeding (R) Southern Armyworm” value in test [1] (100 ppm) and in test [1] (1000 ppm) was “R” throughout. Further, the “Mortality Rating Tobacco Budworm 3rd Instar” value in test [2] (1000 ppm) is on record as 0 (No effect).

On to `N=C(NN=Cc1ccc(Cl)cc1)NN=Cc1ccc(Cl)cc1` [Cl / HNO3], for which the “Mortality Rating Southern Armyworm” value in test [1] (100 ppm) is on record as 0 (No effect); in test [1] (1000 ppm) it was 9 (100%). For the same molecule, the “Mortality Rating Tobacco Budworm 3rd Instar” value in test [2] (1000 ppm) is given as 0 (No effect).

On to `CN(C)C(=O)N(N=Cc1ccc(F)cc1)C(=N)NN=Cc1ccc(F)cc1` [F / F / CH3 / CH3], for which the “Mortality Rating Southern Armyworm” value in test [1] (100 ppm) is 0 (No effect); in test [1] (1000 ppm), 8 (86-99%). Also, the “Mortality Rating Tobacco Budworm 3rd Instar” value in test [2] (1000 ppm) is 0 (No effect).

In the case of `CC(C)OC(=O)N(N=Cc1ccc(OC(F)(F)C(Cl)Cl)cc1)C(=N)NN=Cc1ccc(OC(F)(F)C(Cl)Cl)cc1` [HCCL2 CF2 O / HCCl2 CF2 O / -i-C3 H7], the results for the “Mortality Rating Southern Armyworm” value in test [1] (100 ppm) and in test [1] (1000 ppm) were 0 (No effect) and 7 (76-85%), respectively. The “Mortality Rating Tobacco Budworm 3rd Instar” value in test [2] (100 ppm) and in test [2] (1000 ppm) was 0 (No effect) in each case. In addition, the “reduced feeding (R) Tobacco Budworm 3rd Instar” value in test [2] (100 ppm) and in test [2] (1000 ppm) was “R” throughout.
